From the NIST ThermoML archive (doi:10.1016/j.fluid.2016.02.009)

Details: Liquid, Vibrating tube method

COC(C)(C)C [2-methoxy-2-methylpropane]
mass density [kg/m3]
Details	283.15 K	288.15 K	293.15 K	298.15 K	303.15 K
100 kPa	750.94	745.79	740.59	735.34	730.04
5000 kPa	756.29	751.33	746.34	741.32	736.27
10000 kPa	761.29	756.52	751.7	746.89	742.05
15000 kPa	765.93	761.32	756.68	752.04	747.37
20000 kPa	770.32	765.86	761.35	756.85	752.37
25000 kPa	774.48	770.15	765.77	761.42	757.05
30000 kPa	778.47	774.24	770.01	765.75	761.51
35000 kPa	782.29	778.15	774	769.88	–
40000 kPa	785.94	781.89	777.85	773.81	–
45000 kPa	789.45	785.49	781.54	777.6	–
50000 kPa	792.86	788.97	785.09	781.23	–
55000 kPa	796.13	792.3	788.51	784.71	–
60000 kPa	799.29	795.55	791.81	788.1	–
65000 kPa	802.37	798.67	795	791.36	–
